These results are taken from patent publication US20210177722A1, “Phytic Acid Ester Derivative” (NATIONAL UNIVERSITY CORPORATION KUMAMOTO UNIVERSITY, priority 2018, published 2021).

One data set has as its system HeLa cell. The experiment in a line: Quantitative determination of IP6 in cell (LC/MS of IP6 methyl ester). The class given is cell-based. As to conditions: HeLa cells, 10 μM, 30 minutes. As to the method: In this example, incorporation of Pro-IP6 into a HeLa cell was quantitatively determined.
HeLa cells (5×10^5 cells/well, culture fluid: 1 mL) were seeded in a 3.5 cm dish to be cultured for 24 hours. Thereafter, DMSO (1%, Fujifilm Wako Pure Chemical Corporation), an aqueous solution (1%) of IP6 (final concentration: 10 μM, Sigma Aldrich), or a DMSO solution (1%) of Pro-IP6 (final concentration: 10 μM) synthesized in Example 1 was added thereto, and the resultant was cultured for another 30 minutes. HeLa cells were cultured with neither IP6 nor Pro-IP6 added, followed by adding the same amount of DMSO thereto, and the resultant was used as a negative control.
Thereafter, the resultant was washed with 1× PBS (−) once, and the resultant cells were scraped with a cell scraper, transferred to a 1.5 mL tube, and washed with 1× PBS (−) three times. To the thus obtained precipitate, 350 μl of MeOH (Fujifilm Wako Pure Chemical Corporation) and 1% NP-40 (Nacalai Tesque, Inc.) were added, followed by sonication (10 minutes). After equilibrating a column (Oasis WAX 1cc, Waters) with MeOH (1 mL) and H2O (1 mL), a disrupted cell extract was added thereto. Thereafter, the column was washed with 50% MeOH (1 mL), and eluted with 50% MeOH (200 μL×2) containing 2 mol/L of HCl (Fujifilm Wako Pure Chemical Corporation). The thus obtained eluate was concentrated, and dissolved in MeOH (50 μL), and trimethylsilyldiazomethane (200 μl, Tokyo Chemical Industry Co., Ltd.) was added thereto, followed by stirring at 50° C. for 1 hour under argon atmosphere. The reaction was stopped by adding H2O (100 μL). Through a reaction of trimethylsilyidiazomethane with IP6, IP6 methyl ester is obtained.
The thus obtained sample (IP6 methyl ester) was measured by LC/MS [column: MastroC18 2.1 mm×100 mm, […] (Shimadzu GLC Ltd.), mobile phase: 0.1% formic acid solution (Fujifilm Wako Pure Chemical Corporation), acetonitrile (Fujifilm Wako Pure Chemical Corporation)] [LC:LC-20AD (Shimadzu), MS: amaZon speed (BRUKER)].

The test system of data set [1] is S1T cell (ATL cell line) tumor. The experiment in a line: Effect on HTLV-1 infected cell-transplanted mouse (ATL model). The conditions noted are these: day 28 after transplantation, 20 mg/kg per day intraperitoneally for 28 days, NSG mice with S1T cells. The class given is in vivo. The text has this: In this example, the in vivo effect of Pro-IP6 on an HTLV-1 infected cell-transplanted mouse was checked. HTLV-1 (human T cell leukemia virus 1) mainly infects CD4-positive T lymphocyte, and when the infected cell cancerates, refractory malignant tumor, adult T-cell leukemia (ATL) is caused. In this example, S1T cell, that is, one of ATL cell lines, was used.
5-Week-old female NSG mice (NOD. Cg-Prkdc scid I12rg tm1Wjl/SzJ, Charles River Laboratories Japan, Inc.) were used. Five mice each in each of two cages, namely, ten mice in total, were raised with sterilized bedding (Pepar Clean: Japan SLC, Inc.) placed in a sterilized cage (Clea Japan, Inc.). […]
The control group was dosed with DMSO, and the IP6 administration group and the pro-IP6 administration group were intraperitoneally dosed respectively with IP6 in an amount of 7.1 mg/kg and pro-IP6 in an amount of 20 mg/kg. The mice were dosed continuously for 28 days after the day of the cell transplantation, and the weight and the tumor volume of each mouse were measured every day. The tumor volume was defined as (shorter diameter in mm)^2×(longer diameter in mm)×0.5, and the shorter diameter and the longer diameter were measured with a caliper. […] Subsequently, the tumor was totally removed, and the tumor volume and the tumor weight of each tumor were measured.

In the next data set the test system is TRAF6. The experiment in a line: Western blotting (2), anti-TRAF6 antibody, Jurkat cell. The class given is cell-based, human. The conditions noted are these: 1 μM or 10 μM, 8 hours or 24 hours. The procedure: In this example, in the same manner as in Example 4, the action mechanism for killing cells by Pro-IP6 was checked by Wester blotting using a Jurkat cell and various antibodies. Jurkat cells (1×10^5 cells/well, culture fluid: 500 μL) were seeded in a 24-well plate to be cultured overnight. Thereafter, DMSO (1%, Fujifilm Wako Pure Chemical Corporation), an aqueous solution (1%) of IP6 (final concentration 10 μM, Sigma Aldrich), or a DMSO solution (1%) of Pro-IP6 (final concentration: 1 μM or 10 μM) was added thereto, followed by culturing for 8 hours or 24 hours. A supernatant was removed, the resultant was washed with 1× PBS (−) once, Laemmli sample buffer was added thereto, and the resultant was boiled at 100° C. for […] to dissolve the cells. The resultant was subjected to electrophoresis and then transferred onto a membrane (Millipore). […] Detection was performed using ImmunoStar LD (Fujfilm Wako Pure Chemical Corporation).

With `CCCC(=O)OCOP(=O)(OCOC(=O)CCC)O[C@H]1[C@H](OP(=O)(OCOC(=O)CCC)OCOC(=O)CCC)[C@@H](OP(=O)(OCOC(=O)CCC)OCOC(=O)CCC)[C@H](OP(=O)(OCOC(=O)CCC)OCOC(=O)CCC)[C@@H](OP(=O)(OCOC(=O)CCC)OCOC(=O)CCC)[C@H]1OP(=O)(OCOC(=O)CCC)OCOC(=O)CCC` [Pro-IP6, myo-inositol hexaphosphate dodecakis(butyryloxymethyl) ester], in the data set on HeLa cell, the “incorporation into HeLa cell (IP6 methyl ester by LC/MS vs negative control)” value is recorded as “well incorporated”. The “amount of IP6 methyl ester observed in cell relative to that of IP6” value in the data set with HeLa cell (LC/MS) is “not less than 200 times”. The “tumor volume smaller as compared with that of the control group” value in data set [1] is given as “about 25%”. Moreover, the “expression of TRAF6” value in the data set with TRAF6 is given as “inhibits expression of TRAF6”.
